Assay results taken from patent US6942966B1, “Methods for processing chemical compounds having reactive functional groups” (ISIS Pharmaceuticals, Inc., priority 1995, dated 2005).

Molecular target: T1, human type II PLA2 (Homo sapiens, UniProt P14555)
T1 construct: made in house; host or cells: baculovirus system
T1 sequence (P14555 21-144): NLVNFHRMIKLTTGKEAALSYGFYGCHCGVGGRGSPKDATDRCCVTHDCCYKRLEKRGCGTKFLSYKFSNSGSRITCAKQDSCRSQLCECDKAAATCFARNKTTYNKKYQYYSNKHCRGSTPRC
Test: E. coli PLA2 assay (3H-oleic acid labeled E. coli as substrate)
Assay type: biochemical
Details: compounds 33 and 34 assayed as a mixture at 100 μM, 50 μM, and 10 μM (final concentration)
Text: After each round of synthesis as described in the above examples, the resulting pools of compounds are screened for inhibition of human type II PLA2 enzymatic activity. The assay is effected at the conclusion of each round of synthesis to identify the wining pool from that round of synthesis. Concurrently, the libraries additionally can be screened in other in vitro assays to determine further mechanisms of inhibition.
The pools of the macrocyclic libraries are screened for inhibition of PLA2 in the assay using E. coli labeled with ^3H-oleic acid (Franson et al., J. Lipid Res. 1974, 15, 380; and Davidson et al., J. Biol. Chem. 1987, 262, 1698) as the substrate. Type II PLA2 (originally isolated from synovial fluid), expressed in a baculovirus system and partially purified, serves as a source of the enzyme. […] 165 μl of each supernate is then put into a scintillation vial containing 6 ml of scintillant (Scintiverse) and cpms are measured in a Beckman Liquid Scintillation Counter. […]
The compounds were assayed as a mixture at 100 μM, 50 μM, and 10 μM (final concentration). […] Duplicate assay values were averaged, background (no compound, no PLA2) was subtracted and the percentage of the positive control (no compound) was calculated.

| inhibitory activity in E. coli PLA2 assay | Substance |
| --- | --- |
| showed inhibitory activity | 1,11,18,28-tetracarboxy-2,10,19,27-tetraaza-7,22-bis-(tosyl)aza-3,26-dioxa-[11.11]pyridinophane [compound 33] |
| showed inhibitory activity | 1,11,18,28-tetracarboxy-2,10,19,27-tetraaza-7,24-bis-(tosyl)aza-3,20-dioxa-[11.11]pyridinophane [compound 34] |
